Reference: the supplement of paper PMC11061612

How the values were obtained:
GI-1 (Glioblastoma) [1] = assay: combination Emax (second highest fraction inhibited in the dose matrix, 72 h); higher = more inhibition; extreme values may be limits of the assay
How it was run: (§1)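 After 24 hours at 37°C and 5% CO2 in 1536-well plates, cells in DMEM/F12 or RPMI plus 10% FBS received two-drug dose matrices for 72 hours. Viability came from CellTiter-Glo 2.0 luminescence and was scaled as inhibition, anchored at 0 by vehicle wells and at 1 by blank wells. Combination Emax is taken as the second-highest inhibition in the matrix, and Bliss excess as the observed combination effect less EA + EB − EA·EB, with EA and EB the single-agent effects.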

[2] = tested on: H-EMC-SS (Chondrosarcoma); assay: as above
How it was run: as §1

[3] = tested on: LC4-1 (B-Lymphoblastic Leukemia); assay: as above
How it was run: as §1

NB7 (Neuroblastoma) [4] = assay: as above
How it was run: as §1

[5] = tested on: SCC-9 (Oral Cavity Carcinoma); assay: as above
How it was run: as §1

[6] = tested on: SNU-C1 (Colorectal Carcinoma); assay: as above
How it was run: as §1

[7] = tested on: JHH-7 (Hepatocellular Carcinoma); assay: as above
How it was run: as §1

[8] = tested on: TGBC11TKB (Gastric Carcinoma); assay: as above
How it was run: as §1

[9] = tested on: HSC-2 (Oral Cavity Carcinoma); assay: as above
How it was run: as §1

[10] = tested on: VMRC-LCD (Lung Adenocarcinoma); assay: as above
How it was run: as §1

[11] = tested on: OCUM-1 (Gastric Carcinoma); assay: as above
How it was run: as §1

EW-3 (Ewing's Sarcoma) [12] = assay: as above
How it was run: as §1

[13] = tested on: NCI-N87 (Gastric Carcinoma); assay: as above
How it was run: as §1

[14] = tested on: KINGS-1 (Low Grade Glioma); assay: as above
How it was run: as §1

[15] = tested on: OCUB-M (Breast Carcinoma); assay: as above
How it was run: as §1

GI-1 (Glioblastoma) [16] = assay: Bliss excess, mean over the matrix (fraction); higher = more synergy
How it was run: as §1

[17] = tested on: H-EMC-SS (Chondrosarcoma); assay: as above
How it was run: as §1

[18] = tested on: LC4-1 (B-Lymphoblastic Leukemia); assay: as above
How it was run: as §1

NB7 (Neuroblastoma) [19] = assay: as above
How it was run: as §1

[20] = tested on: SCC-9 (Oral Cavity Carcinoma); assay: as above
How it was run: as §1

[21] = tested on: SNU-C1 (Colorectal Carcinoma); assay: as above
How it was run: as §1

[22] = tested on: TGBC11TKB (Gastric Carcinoma); assay: as above
How it was run: as §1

[23] = tested on: HSC-2 (Oral Cavity Carcinoma); assay: as above
How it was run: as §1

[24] = tested on: VMRC-LCD (Lung Adenocarcinoma); assay: as above
How it was run: as §1

[25] = tested on: OCUM-1 (Gastric Carcinoma); assay: as above
How it was run: as §1

EW-3 (Ewing's Sarcoma) [26] = assay: as above
How it was run: as §1

[27] = tested on: NCI-N87 (Gastric Carcinoma); assay: as above
How it was run: as §1

[28] = tested on: KINGS-1 (Low Grade Glioma); assay: as above
How it was run: as §1

[29] = tested on: OCUB-M (Breast Carcinoma); assay: as above
How it was run: as §1

[30] = tested on: JHH-7 (Hepatocellular Carcinoma); assay: as above
How it was run: as §1
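For Bliss excess, mean over the matrix in this document: after 72 h of two-drug dosing.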

Row | SMILES | combination Emax (GI-1 (Glioblastoma) [1]) | combination Emax [2] | combination Emax [3] | combination Emax (NB7 (Neuroblastoma) [4]) | combination Emax [5] | combination Emax [6] | combination Emax [7] | combination Emax [8] | combination Emax [9] | combination Emax [10] | combination Emax [11] | combination Emax (EW-3 (Ewing's Sarcoma) [12]) | combination Emax [13] | combination Emax [14] | combination Emax [15] | Bliss excess (GI-1 (Glioblastoma) [16]) | Bliss excess [17] | Bliss excess [18] | Bliss excess (NB7 (Neuroblastoma) [19]) | Bliss excess [20] | Bliss excess [21] | Bliss excess [22] | Bliss excess [23] | Bliss excess [24] | Bliss excess [25] | Bliss excess (EW-3 (Ewing's Sarcoma) [26]) | Bliss excess [27] | Bliss excess [28] | Bliss excess [29] | Bliss excess [30]
1 | N#Cc1cnc(Nc2cc(NC[C@H]3CNCCO3)c(C(F)(F)F)cn2)cn1 [SRA737] + O=c1[nH]cc(F)c(=O)[nH]1 [5-Fluorouracil] (first compound max 10 µM, 7x7, partner max 20 µM) | 0.683 | 0.198 | 0.847 | 0.431 | 0.319 | 0.803 | 0.392 | 0.869 | 0.382 | 0.668 | 0.416 | 0.663 | 0.628 | 0.122 | 0.302 | -0.0397 | -0.0371 | -0.0214 | -0.0058 | 0.053 | 0.0964 | 0.0518 | -0.0197 | -0.0371 | -0.0345 | -0.0165 | 0.0586 | -0.029 | 0.0349 | 
2 | Cc1nc(-c2cn3c(n2)-c2ccc(-c4cnn(C(C)(C)C(N)=O)c4)cc2OCC3)n(C(C)C)n1 [Taselisib] + O=C(Nc1ccc2[nH]nc(-c3ccncc3)c2c1)[C@@H]1CCN(CC(=O)N2CCN(c3ccc(-c4ncccn4)cc3)CC2)C1 [SCH772984] (first compound max 10 µM, 7x7, partner max 5 µM) | 0.732 | 0.927 | 0.588 | 0.264 | 0.959 | 0.932 | 0.526 | 0.765 | 0.994 | 0.149 | 0.983 | 0.608 | 0.947 | 0.749 | 1 | 0.111 | 0.156 | 0.0661 | -0.0014 | 0.151 | 0.108 | 0.177 | 0.0341 | -0.0342 | 0.016 | 0.0884 | 0.0215 | 0.139 | 0.0341 | 0.0389
3 | N#Cc1cnc(Nc2cc(NC[C@H]3CNCCO3)c(C(F)(F)F)cn2)cn1 [SRA737] + CCc1c2c(nc3ccc(O)cc13)-c1cc3c(c(=O)n1C2)COC(=O)[C@]3(O)CC [SN-38] (first compound max 10 µM, 7x7, partner max 0.3 µM) | 0.973 | 0.544 | 0.941 | 0.952 | 0.518 | 0.748 | 0.616 |  | 0.96 | 0.812 | 0.695 | 0.865 | 0.732 | 0.362 | 0.935 | 0.0169 | -0.0264 | -0.129 | 0.0757 | 0.0297 | 0.0746 | 0.0031 | -0.0648 | 0.102 | -0.11 | -0.0562 | -0.0812 | -0.0051 | 0.231 | 0.0753
4 | Cc1c2c(nn1C)CSCc1cc(n(C)n1)CSc1cc(c3ccccc3c1)OCCCc1c(C(=O)O)n(C)c3c-2c(Cl)ccc13 [AZD5991] + CC(=O)O[C@H]1C(=O)[C@@]2(C)[C@H]([C@H](OC(=O)c3ccccc3)[C@]3(O)C[C@H](OC(=O)[C@H](O)[C@@H](NC(=O)c4ccccc4)c4ccccc4)C(C)=C1C3(C)C)[C@]1(OC(C)=O)CO[C@@H]1C[C@@H]2O [Paclitaxel] (first compound max 1 µM, 7x7, partner max 3 µM) | 0.989 | 0.285 | 0.988 | 0.979 | 0.614 | 0.545 | 0.603 | 0.957 | 1 | 0.864 | 0.321 | 0.917 | 0.555 | 0.407 | 1 | -0.0373 | 0.0049 | -0.0585 | 0.0901 |  | -0.024 | -0.0368 | -0.0534 |  | 0.027 | -0.0365 | -0.0041 | 0.0134 | 0.0387 | -0.0494
5 | CN(CCO)CC[C@H](CSc1ccccc1)Nc1ccc(S(=O)(=O)NC(=O)c2ccc(N3CCC([C@@H](O)c4ccccc4-c4ccc(Cl)cc4)CC3)cc2)cc1S(=O)(=O)C(F)(F)F [AZD4320] + CS(=O)(=O)CCNCc1ccc(-c2ccc3ncnc(Nc4ccc(OCc5cccc(F)c5)c(Cl)c4)c3c2)o1 [Lapatinib] (first compound max 1 µM, 7x7, partner max 10 µM) | 0.962 | 0.439 | 1 | 0.189 | 0.99 | 0.666 | 0.971 | 0.674 | 1 | 0.923 | 1 | 0.984 | 0.982 | 0.962 | 0.887 | 0.0992 | 0.0321 | 0.0427 | 0.0034 | 0.0105 | 0.0215 | 0.0791 | 0.114 | 0.0981 | 0.0032 | 0.0104 | 0.0453 | 0.0401 |  | -0.0153
